Results taken from US12568972B2, “Pyridazinol compounds and derivatives, preparation methods, herbicidal compositions and applications thereof” (Qingdao Kingagroot Chemical Compound Co., Ltd., priority 2018, dated 2026).

How the values were obtained:
Assay in all cases: Post-emergence test, weed control effect
Format in all cases: in vivo
Conditions in all cases: Dose 3000 g/ha, after 3 weeks
[1] = test system: Amaranthus retroflexus
Summary of the method: (§1)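 Greenhouse pots, soil-sown, 0.5-2 cm cover; foliar spray at 2-3 leaf stage (2-3 wk post-sowing); cpd in acetone + Tween-80, water-diluted, + 80% veg. oil methyl ester synergist 1500 g/ha; 3 wk culture; fresh-wt inhibition graded 0-10.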

[2] = test system: Chenopodiaceae
Summary of the method: as §1

[3] = test system: Rorippa indica
Summary of the method: as §1

[4] = test system: Veronica polita
Summary of the method: as §1

Cc1ccc(S(=O)(=O)Oc2cc(C(F)(F)F)nnc2-c2ccc(F)cc2)cc1 [Compound 1-132]
10: weed control effect, Amaranthus retroflexus (activity level) [1] | weed control effect, Chenopodiaceae (activity level) [2] | weed control effect, Rorippa indica (activity level) [3] | weed control effect, Veronica polita (activity level) [4]

O=S(=O)(Oc1cc(C(F)(F)F)nnc1-c1ccc(F)cc1)c1ccc(Cl)cc1Cl [Compound 1-133]
10: weed control effect, Amaranthus retroflexus (activity level) [1] | weed control effect, Chenopodiaceae (activity level) [2] | weed control effect, Rorippa indica (activity level) [3] | weed control effect, Veronica polita (activity level) [4]

O=S(=O)(Oc1cc(C(F)(F)F)nnc1-c1ccc(F)cc1)c1ccc(F)cc1 [Compound 1-134]
10: weed control effect, Amaranthus retroflexus (activity level) [1] | weed control effect, Chenopodiaceae (activity level) [2] | weed control effect, Rorippa indica (activity level) [3] | weed control effect, Veronica polita (activity level) [4]

O=[N+]([O-])c1ccc(S(=O)(=O)Oc2cc(C(F)(F)F)nnc2-c2ccc(F)c(F)c2)cc1 [Compound 1-135]
10: weed control effect, Amaranthus retroflexus (activity level) [1] | weed control effect, Chenopodiaceae (activity level) [2] | weed control effect, Rorippa indica (activity level) [3] | weed control effect, Veronica polita (activity level) [4]

O=S(=O)(Oc1cc(C(F)(F)F)nnc1-c1ccccc1)c1cc(Cl)c(Cl)cc1Cl [Compound 1-136]
10: weed control effect, Amaranthus retroflexus (activity level) [1] | weed control effect, Chenopodiaceae (activity level) [2] | weed control effect, Rorippa indica (activity level) [3] | weed control effect, Veronica polita (activity level) [4]

CS(=O)(=O)c1ccc(S(=O)(=O)Oc2cc(C(F)(F)F)nnc2-c2ccc(F)cc2)cc1 [Compound 1-137]
10: weed control effect, Amaranthus retroflexus (activity level) [1] | weed control effect, Chenopodiaceae (activity level) [2] | weed control effect, Rorippa indica (activity level) [3] | weed control effect, Veronica polita (activity level) [4]

O=S(=O)(Oc1cc(C(F)(F)F)nnc1-c1ccc(F)c(F)c1)c1cc(F)c(Br)cc1F [Compound 1-138]
10: weed control effect, Amaranthus retroflexus (activity level) [1] | weed control effect, Chenopodiaceae (activity level) [2] | weed control effect, Rorippa indica (activity level) [3] | weed control effect, Veronica polita (activity level) [4]

O=S(=O)(Oc1cc(C(F)(F)F)nnc1-c1ccc(Cl)cc1)c1cccc(OC(F)F)c1 [Compound 1-139]
10: weed control effect, Amaranthus retroflexus (activity level) [1] | weed control effect, Chenopodiaceae (activity level) [2] | weed control effect, Rorippa indica (activity level) [3] | weed control effect, Veronica polita (activity level) [4]

CC(=O)c1cccc(S(=O)(=O)Oc2cc(C(F)(F)F)nnc2-c2ccccc2)c1 [Compound 1-140]
10: weed control effect, Amaranthus retroflexus (activity level) [1] | weed control effect, Chenopodiaceae (activity level) [2] | weed control effect, Rorippa indica (activity level) [3] | weed control effect, Veronica polita (activity level) [4]

NC(=O)c1ccc(S(=O)(=O)Oc2cc(C(F)(F)F)nnc2-c2ccc(C(F)(F)F)cc2)cc1 [Compound 1-141]
10: weed control effect, Amaranthus retroflexus (activity level) [1] | weed control effect, Chenopodiaceae (activity level) [2] | weed control effect, Rorippa indica (activity level) [3] | weed control effect, Veronica polita (activity level) [4]

O=S(=O)(Oc1cc(C(F)(F)F)nnc1-c1ccc(F)c(Cl)c1)c1ccc(Oc2ccc(F)cc2)cc1 [Compound 1-142]
10: weed control effect, Amaranthus retroflexus (activity level) [1] | weed control effect, Chenopodiaceae (activity level) [2] | weed control effect, Rorippa indica (activity level) [3] | weed control effect, Veronica polita (activity level) [4]

O=S(=O)(Cc1ccccc1)Oc1cc(C(F)(F)F)nnc1-c1ccc(F)cc1 [Compound 1-143]
10: weed control effect, Amaranthus retroflexus (activity level) [1] | weed control effect, Chenopodiaceae (activity level) [2] | weed control effect, Rorippa indica (activity level) [3] | weed control effect, Veronica polita (activity level) [4]

O=S(=O)(Oc1cc(C(F)(F)F)nnc1-c1ccc(C(F)(F)F)cc1)c1cccc2ccccc12 [Compound 1-144]
10: weed control effect, Amaranthus retroflexus (activity level) [1] | weed control effect, Chenopodiaceae (activity level) [2] | weed control effect, Rorippa indica (activity level) [3] | weed control effect, Veronica polita (activity level) [4]

CCc1cccc(-c2nnc(C(F)(F)F)cc2OS(=O)(=O)c2nccs2)c1 [Compound 1-145]
10: weed control effect, Amaranthus retroflexus (activity level) [1] | weed control effect, Chenopodiaceae (activity level) [2] | weed control effect, Rorippa indica (activity level) [3] | weed control effect, Veronica polita (activity level) [4]

O=S(=O)(Oc1cc(C(F)(F)F)nnc1-c1cccc(F)c1)c1ccc(Oc2ccccc2)nc1 [Compound 1-146]
10: weed control effect, Amaranthus retroflexus (activity level) [1] | weed control effect, Chenopodiaceae (activity level) [2] | weed control effect, Rorippa indica (activity level) [3] | weed control effect, Veronica polita (activity level) [4]

O=S(=O)(Oc1cc(C(F)(F)F)nnc1-c1ccc(F)c(F)c1)c1ccc2ncsc2c1 [Compound 1-147]
10: weed control effect, Amaranthus retroflexus (activity level) [1] | weed control effect, Chenopodiaceae (activity level) [2] | weed control effect, Rorippa indica (activity level) [3] | weed control effect, Veronica polita (activity level) [4]

O=S(=O)(Oc1cc(C(F)(F)F)nnc1-c1ccc(C(F)(F)F)cc1)c1ccc2oncc2c1 [Compound 1-148]
10: weed control effect, Amaranthus retroflexus (activity level) [1] | weed control effect, Chenopodiaceae (activity level) [2] | weed control effect, Rorippa indica (activity level) [3] | weed control effect, Veronica polita (activity level) [4]

CCc1cccc(-c2nnc(C(F)(F)F)cc2OS(=O)(=O)c2cc3ccccc3s2)c1 [Compound 1-149]
10: weed control effect, Amaranthus retroflexus (activity level) [1] | weed control effect, Chenopodiaceae (activity level) [2] | weed control effect, Rorippa indica (activity level) [3] | weed control effect, Veronica polita (activity level) [4]

Cn1ccnc1S(=O)(=O)Oc1cc(C(F)(F)F)nnc1-c1cccc(F)c1 [Compound 1-150]
10: weed control effect, Amaranthus retroflexus (activity level) [1] | weed control effect, Chenopodiaceae (activity level) [2] | weed control effect, Rorippa indica (activity level) [3] | weed control effect, Veronica polita (activity level) [4]

Cn1cc(S(=O)(=O)Oc2cc(C(F)(F)F)nnc2-c2cccc(F)c2)cn1 [Compound 1-151]
10: weed control effect, Amaranthus retroflexus (activity level) [1] | weed control effect, Chenopodiaceae (activity level) [2] | weed control effect, Rorippa indica (activity level) [3] | weed control effect, Veronica polita (activity level) [4]

Cn1ccc2ccc(S(=O)(=O)Oc3cc(C(F)(F)F)nnc3-c3ccc(F)c(F)c3)cc21 [Compound 1-152]
10: weed control effect, Amaranthus retroflexus (activity level) [1] | weed control effect, Chenopodiaceae (activity level) [2] | weed control effect, Rorippa indica (activity level) [3] | weed control effect, Veronica polita (activity level) [4]

CCc1cccc(-c2nnc(C(F)(F)F)cc2OS(=O)(=O)c2nc3ccccc3[nH]2)c1 [Compound 1-153]
10: weed control effect, Amaranthus retroflexus (activity level) [1] | weed control effect, Chenopodiaceae (activity level) [2] | weed control effect, Rorippa indica (activity level) [3] | weed control effect, Veronica polita (activity level) [4]

CCCCCCCCC(=S)Oc1cc(C(F)(F)F)nnc1-c1ccc(F)cc1 [Compound 1-154]
10: weed control effect, Amaranthus retroflexus (activity level) [1] | weed control effect, Chenopodiaceae (activity level) [2] | weed control effect, Rorippa indica (activity level) [3] | weed control effect, Veronica polita (activity level) [4]

CCOC(=S)Oc1cc(C(F)(F)F)nnc1-c1ccc(C)cc1 [Compound 1-155]
10: weed control effect, Amaranthus retroflexus (activity level) [1] | weed control effect, Chenopodiaceae (activity level) [2] | weed control effect, Rorippa indica (activity level) [3] | weed control effect, Veronica polita (activity level) [4]

CCCOC(=S)Oc1cc(C(F)(F)F)nnc1-c1ccc(OC)cc1 [Compound 1-156]
10: weed control effect, Amaranthus retroflexus (activity level) [1] | weed control effect, Chenopodiaceae (activity level) [2] | weed control effect, Rorippa indica (activity level) [3] | weed control effect, Veronica polita (activity level) [4]

CCCCOC(=S)Oc1cc(C(F)(F)F)nnc1-c1ccc(F)c(F)c1 [Compound 1-157]
10: weed control effect, Amaranthus retroflexus (activity level) [1] | weed control effect, Chenopodiaceae (activity level) [2] | weed control effect, Rorippa indica (activity level) [3] | weed control effect, Veronica polita (activity level) [4]

CC(C)COC(=S)Oc1cc(C(F)(F)F)nnc1-c1ccc(Cl)cc1Cl [Compound 1-158]
10: weed control effect, Amaranthus retroflexus (activity level) [1] | weed control effect, Chenopodiaceae (activity level) [2] | weed control effect, Rorippa indica (activity level) [3] | weed control effect, Veronica polita (activity level) [4]

Cc1ccc(-c2nnc(C(F)(F)F)cc2OC(=S)OCCC(C)C)c([N+](=O)[O-])c1 [Compound 1-159]
10: weed control effect, Amaranthus retroflexus (activity level) [1] | weed control effect, Chenopodiaceae (activity level) [2] | weed control effect, Rorippa indica (activity level) [3] | weed control effect, Veronica polita (activity level) [4]
